Results: ChEMBL document CHEMBL1125940 (Bioorg Med Chem Lett, 1991)
Positions of bridges follow the written chain, without caps; N, C: chain ends. Non-standard residues stand in square brackets, D forms with d. Residues, ends and D or L forms follow the SMILES beside them. Nle = CCCC[C@H](N)C(=O)O

Assays:
[1] = target: T1, Endothelin-1 receptor (Rattus norvegicus, UniProt P26684); test: Binding affinity towards Endothelin A receptor in A10 rat thoracic aorta smooth muscle cells using [125I]ET1 as radioligand (Exp 1)
T1 sequence (P26684 whole entry): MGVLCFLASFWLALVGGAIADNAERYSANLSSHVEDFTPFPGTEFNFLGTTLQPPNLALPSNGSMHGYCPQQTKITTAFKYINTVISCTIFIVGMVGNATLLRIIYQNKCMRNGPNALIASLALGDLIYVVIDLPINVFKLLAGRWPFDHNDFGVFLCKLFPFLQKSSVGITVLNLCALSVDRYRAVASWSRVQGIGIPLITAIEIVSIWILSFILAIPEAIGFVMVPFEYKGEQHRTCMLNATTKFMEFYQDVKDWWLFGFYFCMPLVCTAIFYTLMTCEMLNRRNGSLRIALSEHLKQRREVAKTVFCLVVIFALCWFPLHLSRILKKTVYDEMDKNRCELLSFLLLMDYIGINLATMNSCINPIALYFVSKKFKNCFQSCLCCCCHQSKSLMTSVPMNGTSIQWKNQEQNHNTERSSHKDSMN

[2] = target: T1, Endothelin-1 receptor; test: Binding affinity towards Endothelin A receptor in A10 rat thoracic aorta smooth muscle cells using [125I]ET1 as radioligand (Exp 2)
[3] = organism: Oryctolagus cuniculus; test: Effective concentration required for stimulation of vascular contraction tested in vitro using carotid arteries of New Zealand white rabbits; type: functional
[4] = target: T1, Endothelin-1 receptor; test: Binding affinity towards Endothelin A receptor in A10 rat thoracic aorta smooth muscle cells using [125I]ET1 as radioligand

| Kd [1] [µM] | Kd [2] [µM] | EC50 [3] [µM] | Kd [4] [µM] | Structure (SMILES) |
| --- | --- | --- | --- | --- |
| 0.031 | 1.39 |  |  | CC[C@H](C)[C@H](NC(=O)[C@H](CC(=O)O)NC(=O)[C@H](CC(C)C)NC(=O)[C@H](Cc1cnc[nH]1)NC(=O)[C@@H]1CSSC[C@H](N)C(=O)N[C@@H](CO)C(=O)N[C@H]2CSSC[C@H](NC(=O)[C@H](CCC(=O)O)NC(=O)[C@H](CCCCN)NC(=O)[C@H](CC(=O)O)NC(=O)[C@H](CCSC)NC(=O)[C@H](CC(C)C)NC(=O)[C@H](CO)NC(=O)[C@H](CO)NC2=O)C(=O)N[C@@H](C)C(=O)N[C@@H](Cc2ccc(O)cc2)C(=O)N[C@@H](Cc2ccccc2)C(=O)N1)C(=O)N[C@H](C(=O)N[C@@H](Cc1c[nH]c2ccccc12)C(=O)O)[C@@H](C)CC (H-CSCSSLMDKECAYFCHLDIIW-OH; disulfide 1-15, 3-11) |
| 0.0007 | 0.08 |  |  | CC[C@H](C)[C@H](NC(=O)[C@H](C)NC(=O)[C@H](CC(C)C)NC(=O)[C@H](Cc1cnc[nH]1)NC(=O)[C@@H]1CSSC[C@H](N)C(=O)N[C@@H](CO)C(=O)N[C@H]2CSSC[C@H](NC(=O)[C@H](CCC(=O)O)NC(=O)[C@H](CCCCN)NC(=O)[C@H](CC(=O)O)NC(=O)[C@H](CCSC)NC(=O)[C@H](CC(C)C)NC(=O)[C@H](CO)NC(=O)[C@H](CO)NC2=O)C(=O)N[C@@H](C(C)C)C(=O)N[C@@H](Cc2ccc(O)cc2)C(=O)N[C@@H](Cc2ccccc2)C(=O)N1)C(=O)N[C@H](C(=O)N[C@@H](Cc1c[nH]c2ccccc12)C(=O)O)[C@@H](C)CC (H-CSCSSLMDKECVYFCHLAIIW-OH; disulfide 1-15, 3-11) |
| 0.096 | 3.12 |  |  | CC[C@H](C)[C@H](NC(=O)[C@H](C)NC(=O)[C@H](CC(=O)O)NC(=O)[C@H](CC(C)C)NC(=O)[C@H](Cc1cnc[nH]1)NC(=O)[C@@H]1CSSC[C@H](N)C(=O)N[C@@H](CO)C(=O)N[C@H]2CSSC[C@H](NC(=O)[C@H](CCC(=O)O)NC(=O)[C@H](CCCCN)NC(=O)[C@H](CC(=O)O)NC(=O)[C@H](CCSC)NC(=O)[C@H](CC(C)C)NC(=O)[C@H](CO)NC(=O)[C@H](CO)NC2=O)C(=O)N[C@@H](C(C)C)C(=O)N[C@@H](Cc2ccc(O)cc2)C(=O)N[C@@H](Cc2ccccc2)C(=O)N1)C(=O)N[C@@H](Cc1c[nH]c2ccccc12)C(=O)O (H-CSCSSLMDKECVYFCHLDAIW-OH; disulfide 1-15, 3-11) |
| 0.0096 | 0.409 |  |  | CC[C@H](C)[C@H](NC(=O)[C@H](CC(=O)O)NC(=O)[C@H](CC(C)C)NC(=O)[C@H](Cc1cnc[nH]1)NC(=O)[C@@H]1CSSC[C@H](N)C(=O)N[C@@H](C)C(=O)N[C@H]2CSSC[C@H](NC(=O)[C@H](CCC(=O)O)NC(=O)[C@H](CCCCN)NC(=O)[C@H](CC(=O)O)NC(=O)[C@H](CCSC)NC(=O)[C@H](CC(C)C)NC(=O)[C@H](CO)NC(=O)[C@H](CO)NC2=O)C(=O)N[C@@H](C(C)C)C(=O)N[C@@H](Cc2ccc(O)cc2)C(=O)N[C@@H](Cc2ccccc2)C(=O)N1)C(=O)N[C@H](C(=O)N[C@@H](Cc1c[nH]c2ccccc12)C(=O)O)[C@@H](C)CC (H-CACSSLMDKECVYFCHLDIIW-OH; disulfide 1-15, 3-11) |

Continued, compound first:

| Structure (SMILES) | Kd [1] [µM] | Kd [2] [µM] | EC50 [3] [µM] | Kd [4] [µM] |
| --- | --- | --- | --- | --- |
| CC[C@H](C)[C@H](NC(=O)[C@H](CC(=O)O)NC(=O)[C@H](C)NC(=O)[C@H](Cc1c[nH]cn1)NC(=O)[C@@H]1CSSC[C@H](N)C(=O)N[C@@H](CO)C(=O)N[C@H]2CSSC[C@H](NC(=O)[C@H](CCC(=O)O)NC(=O)[C@H](CCCCN)NC(=O)[C@H](CC(=O)O)NC(=O)[C@H](CCSC)NC(=O)[C@H](CC(C)C)NC(=O)[C@H](CO)NC(=O)[C@H](CO)NC2=O)C(=O)N[C@@H](C(C)C)C(=O)N[C@@H](Cc2ccc(O)cc2)C(=O)N[C@@H](Cc2ccccc2)C(=O)N1)C(=O)N[C@H](C(=O)N[C@@H](Cc1c[nH]c2ccccc12)C(=O)O)[C@@H](C)CC (H-CSCSSLMDKECVYFCHADIIW-OH; disulfide 1-15, 3-11) | 0.0066 | 1.91 |  |  |
| CC[C@H](C)[C@H](NC(=O)[C@H](CC(=O)O)NC(=O)[C@H](CC(C)C)NC(=O)[C@H](Cc1c[nH]cn1)NC(=O)[C@@H]1CSSC[C@H](N)C(=O)N[C@@H](CO)C(=O)N[C@H]2CSSC[C@H](NC(=O)[C@H](CCC(=O)O)NC(=O)[C@H](CCCCN)NC(=O)[C@H](CC(=O)O)NC(=O)[C@H](CCSC)NC(=O)[C@H](CC(C)C)NC(=O)[C@H](CO)NC(=O)[C@H](CO)NC2=O)C(=O)N[C@@H](C)C(=O)N[C@@H](Cc2ccc(O)cc2)C(=O)N[C@@H](Cc2ccccc2)C(=O)N1)C(=O)N[C@H](C(=O)N[C@@H](Cc1c[nH]c2ccccc12)C(=O)O)[C@@H](C)CC (H-CSCSSLMDKECAYFCHLDIIW-OH; disulfide 1-15, 3-11) |  |  | 0.13 |  |
| CC[C@H](C)[C@H](NC(=O)[C@H](C)NC(=O)[C@H](CC(=O)O)NC(=O)[C@H](CC(C)C)NC(=O)[C@H](Cc1c[nH]cn1)NC(=O)[C@@H]1CSSC[C@H](N)C(=O)N[C@@H](CO)C(=O)N[C@H]2CSSC[C@H](NC(=O)[C@H](CCC(=O)O)NC(=O)[C@H](CCCCN)NC(=O)[C@H](CC(=O)O)NC(=O)[C@H](CCSC)NC(=O)[C@H](CC(C)C)NC(=O)[C@H](CO)NC(=O)[C@H](CO)NC2=O)C(=O)N[C@@H](C(C)C)C(=O)N[C@@H](Cc2ccc(O)cc2)C(=O)N[C@@H](Cc2ccccc2)C(=O)N1)C(=O)N[C@@H](Cc1c[nH]c2ccccc12)C(=O)O (H-CSCSSLMDKECVYFCHLDAIW-OH; disulfide 1-15, 3-11) |  |  | 0.182 |  |
| CCCC[C@@H]1NC(=O)[C@H](CC(C)C)NC(=O)[C@H](CO)NC(=O)[C@H](CO)NC(=O)[C@H](C)NC(=O)[C@H](CO)NC(=O)[C@@H](N)CSSC[C@@H](C(=O)N[C@@H](Cc2cnc[nH]2)C(=O)N[C@@H](CC(C)C)C(=O)N[C@@H](CC(=O)O)C(=O)N[C@H](C(=O)N[C@H](C(=O)N[C@@H](Cc2c[nH]c3ccccc23)C(=O)O)[C@@H](C)CC)[C@@H](C)CC)NC(=O)[C@H](Cc2ccccc2)NC(=O)[C@H](Cc2ccc(O)cc2)NC(=O)[C@H](C(C)C)NC(=O)[C@H](C)NC(=O)[C@H](CCC(=O)O)NC(=O)[C@H](CCCCN)NC(=O)[C@H](CC(=O)O)NC1=O (H-CSASSL[Nle]DKEAVYFCHLDIIW-OH; disulfide 1-15) | 0.00035 | 0.0166 |  |  |
| CCCC[C@@H]1NC(=O)[C@H](CC(C)C)NC(=O)[C@H](CO)NC(=O)[C@H](CO)NC(=O)[C@H](C)NC(=O)[C@H](CO)NC(=O)[C@@H](N)CSSC[C@@H](C(=O)N[C@@H](Cc2c[nH]cn2)C(=O)N[C@@H](CC(C)C)C(=O)N[C@@H](CC(=O)O)C(=O)N[C@H](C(=O)N[C@H](C(=O)N[C@@H](Cc2c[nH]c3ccccc23)C(=O)O)[C@@H](C)CC)[C@@H](C)CC)NC(=O)[C@H](Cc2ccccc2)NC(=O)[C@H](Cc2ccc(O)cc2)NC(=O)[C@H](C(C)C)NC(=O)[C@H](C)NC(=O)[C@H](CCC(=O)O)NC(=O)[C@H](CCCCN)NC(=O)[C@H](CC(=O)O)NC1=O (H-CSASSL[Nle]DKEAVYFCHLDIIW-OH; disulfide 1-15) |  |  | 0.0033 |  |
| CC[C@H](C)[C@H](NC(=O)[C@H](CC(=O)O)NC(=O)[C@H](CC(C)C)NC(=O)[C@H](C)NC(=O)[C@@H]1CSSC[C@H](N)C(=O)N[C@@H](CO)C(=O)N[C@H]2CSSC[C@H](NC(=O)[C@H](CCC(=O)O)NC(=O)[C@H](CCCCN)NC(=O)[C@H](CC(=O)O)NC(=O)[C@H](CCSC)NC(=O)[C@H](CC(C)C)NC(=O)[C@H](CO)NC(=O)[C@H](CO)NC2=O)C(=O)N[C@@H](C(C)C)C(=O)N[C@@H](Cc2ccc(O)cc2)C(=O)N[C@@H](Cc2ccccc2)C(=O)N1)C(=O)N[C@H](C(=O)N[C@@H](Cc1c[nH]c2ccccc12)C(=O)O)[C@@H](C)CC (H-CSCSSLMDKECVYFCALDIIW-OH; disulfide 1-15, 3-11) |  |  | 0.031 | 0.0519 |
| CC[C@H](C)[C@H](NC(=O)[C@H](CC(=O)O)NC(=O)[C@H](CC(C)C)NC(=O)[C@H](Cc1c[nH]cn1)NC(=O)[C@@H]1CSSC[C@H](N)C(=O)N[C@@H](CO)C(=O)N[C@H]2CSSC[C@H](NC(=O)[C@H](CCC(=O)O)NC(=O)[C@H](CCCCN)NC(=O)[C@H](CC(=O)O)NC(=O)[C@H](C)NC(=O)[C@H](C)NC(=O)[C@H](C)NC(=O)[C@H](C)NC2=O)C(=O)N[C@@H](C(C)C)C(=O)N[C@@H](Cc2ccc(O)cc2)C(=O)N[C@@H](Cc2ccccc2)C(=O)N1)C(=O)N[C@H](C(=O)N[C@@H](Cc1c[nH]c2ccccc12)C(=O)O)[C@@H](C)CC (H-CSCAAAADKECVYFCHLDIIW-OH; disulfide 1-15, 3-11) |  |  | 0.036 |  |
